Assay results published in publication PMC11595424, “Heterocycles and a Sorbicillinoid from the Coral-Derived Fungus Penicillium chrysogenum” (Marine Drugs, 2024).

These compounds were tested on MDA-MB-231 (human breast cancer) (assay: Cytotoxicity assay, SRB method, MDA-MB-231). Details: Homo sapiens; MDA-MB-231 cells, SRB method.
Assay type: cell-based
Method: (§1) The cytotoxic activity against the K562 (human leukemia) cell line was evaluated by MTT method, and the cytotoxic activities against L-02 (normal human hepatocytes), ASPC-1 (human pancreatic cancer), MDA-MB-231 (human breast cancer), NCI-H446, and NCI-H446/EP (human small cell lung cancer) cell lines were determined by SRB method. The difference between the two human small-cell lung cancer cell lines is that NCI-H446 is a sensitive cell line while the NCI-H446/EP cell line is resistant to cisplatin, etoposide, SN38, and doxorubicin. As a positive control, doxorubicin was used. […]
(§2) The cytotoxic activity against the K562 (human leukemia) cell line was evaluated by MTT method, and the cytotoxic activities against L-02 (normal human hepato-cytes), ASPC-1 (human pancreatic cancer), MDA-MB-231 (human breast cancer), NCI-H446 and NCI-H446/EP (human small cell lung cancer) cell lines were determined by SRB method.
(§3) Doxorubicin was used as a positive control.
(§4) In the cytotoxic assay, preliminary screening for cytotoxicity of compounds was performed at the concentration of 30 μM, then the compounds with inhibition rate greater than 60 % were rescreened for the IC 50 values. The blank control, vehicle control, positive control (doxorubicin) and compounds at five different concentrations (30, 15, 3.75, 1.875 and 0.9375 μM) were tested three times and the average OD values were taken to calculated IC50 values.
(§5) Table S11. Cytotoxic activities of 1−5
(§6) Compound c Inhibition rate (%) […]
(§7) a Doxorubicin was used as positive control. […]
`Cc1cc(O)c(CC[C@H](C)C(=O)O)c2scnc12` [Compound 3b, Chrysobenzothiazole A] showed an IC50 of over 30 µM. `Cc1c(O)cc(CCC(C)C(=O)O)c2ncsc12` (stereo not drawn) [Compound 4, chrysobenzothiazole B] was tested, and the IC50 was over 30 µM.

Same assay, conditions: Table S11, preliminary screening, c 30 μM
In the case of `Cc1cc(O)c(CC[C@H](C)C(=O)O)c2scnc12` [Compound 3b, Chrysobenzothiazole A], the “Inhibition rate (%) MDA-MB-231” value is reported as -4.16%. In the case of `Cc1c(O)cc(CCC(C)C(=O)O)c2ncsc12` (stereo not drawn) [Compound 4, chrysobenzothiazole B], the “Inhibition rate (%) MDA-MB-231” value is reported as 6.32%.

Each compound was assayed on K562 (human leukemia) cell line (assay: Cytotoxicity assay, MTT method, K562). Details: Homo sapiens; K562 cell line, MTT method.
Assay type: cell-based
Method: as §1, §2, §3, §4, §5, §6
a Doxorubicin was used as positive control.
Table S12. Cytotoxicity against K562 cell line of 5
With `Cc1cc(O)c(CC[C@H](C)C(=O)O)c2scnc12` [Compound 3b, Chrysobenzothiazole A] the IC50 was over 30 µM. `Cc1c(O)cc(CCC(C)C(=O)O)c2ncsc12` (stereo not drawn) [Compound 4, chrysobenzothiazole B] gave an IC50 of over 30 µM.

Same assay, conditions: Table S11, preliminary screening, c 30 μM
For `Cc1cc(O)c(CC[C@H](C)C(=O)O)c2scnc12` [Compound 3b, Chrysobenzothiazole A], the “Inhibition rate (%) K562” value was 34.54%. For `Cc1c(O)cc(CCC(C)C(=O)O)c2ncsc12` (stereo not drawn) [Compound 4, chrysobenzothiazole B], the “Inhibition rate (%) K562” value was 37.63%.

These compounds were tested on NCI-H446 (human small cell lung cancer) cell line (assay: Cytotoxicity assay, SRB method, NCI-H446). Details: Homo sapiens; NCI-H446 (sensitive) cells, SRB method.
Assay type: cell-based
Method: as §1, §2, §3, §4, §5, §6, §7
Table S13. Cytotoxicity against NCI-H446 cell line of 5 c (μM) OD value Inhibition rate (%) IC 50 ( μM)
In the case of `Cc1cc(O)c(CC[C@H](C)C(=O)O)c2scnc12` [Compound 3b, Chrysobenzothiazole A], the IC50 is reported as over 30 µM. For `Cc1c(O)cc(CCC(C)C(=O)O)c2ncsc12` (stereo not drawn) [Compound 4, chrysobenzothiazole B], the IC50 was over 30 µM.

Same assay, conditions: Table S11, preliminary screening, c 30 μM
With `Cc1cc(O)c(CC[C@H](C)C(=O)O)c2scnc12` [Compound 3b, Chrysobenzothiazole A] the “Inhibition rate (%) NCI-H446” value was 9.14%. In the case of `Cc1c(O)cc(CCC(C)C(=O)O)c2ncsc12` (stereo not drawn) [Compound 4, chrysobenzothiazole B], the “Inhibition rate (%) NCI-H446” value is reported as 6.55%.

Each compound was assayed on ASPC-1 (human pancreatic cancer) (assay: Cytotoxicity assay, SRB method, ASPC-1). Details: Homo sapiens, ASPC1; ASPC-1 cells, SRB method.
Assay type: cell-based
Method: as §1, §2, §3, §4, §5, §6, §7
For `Cc1cc(O)c(CC[C@H](C)C(=O)O)c2scnc12` [Compound 3b, Chrysobenzothiazole A], the IC50 was over 30 µM. `Cc1c(O)cc(CCC(C)C(=O)O)c2ncsc12` (stereo not drawn) [Compound 4, chrysobenzothiazole B] was tested, and the IC50 was over 30 µM.

Same assay, conditions: Table S11, preliminary screening, c 30 μM
In the case of `Cc1cc(O)c(CC[C@H](C)C(=O)O)c2scnc12` [Compound 3b, Chrysobenzothiazole A], the “Inhibition rate (%) ASPC-1” value is reported as 2.09%. In the case of `Cc1c(O)cc(CCC(C)C(=O)O)c2ncsc12` (stereo not drawn) [Compound 4, chrysobenzothiazole B], the “Inhibition rate (%) ASPC-1” value is reported as 8.56%.

What follows are compounds tested on L-02 (normal human hepatocytes) (assay: Cytotoxicity assay, SRB method, L-02). Details: Homo sapiens, L02; L-02 cells, SRB method.
Assay type: cell-based
Method: as §1, §2, §3, §4, §5, §6, §7
Work on `Cc1cc(O)c(CC[C@H](C)C(=O)O)c2scnc12` [Compound 3b, Chrysobenzothiazole A] yielded an IC50 of over 30 µM. Work on `Cc1c(O)cc(CCC(C)C(=O)O)c2ncsc12` (stereo not drawn) [Compound 4, chrysobenzothiazole B] yielded an IC50 of over 30 µM.

Same assay, conditions: Table S11, preliminary screening, c 30 μM
With `Cc1cc(O)c(CC[C@H](C)C(=O)O)c2scnc12` [Compound 3b, Chrysobenzothiazole A] the “Inhibition rate (%) L-02” value was -5.91%. In the case of `Cc1c(O)cc(CCC(C)C(=O)O)c2ncsc12` (stereo not drawn) [Compound 4, chrysobenzothiazole B], the “Inhibition rate (%) L-02” value is reported as -1.81%.

What follows are compounds tested on NCI-H446/EP (human small cell lung cancer) cell line (assay: Cytotoxicity assay, SRB method, NCI-H446/EP). Details: Homo sapiens; NCI-H446/EP cells (resistant to cisplatin, etoposide, SN38, doxorubicin), SRB method.
Assay type: cell-based
Method: as §1, §2, §3, §4, §5, §6, §7
Compound `Cc1cc(O)c(CC[C@H](C)C(=O)O)c2scnc12` [Compound 3b, Chrysobenzothiazole A] has an IC50 of over 30 µM. `Cc1c(O)cc(CCC(C)C(=O)O)c2ncsc12` (stereo not drawn) [Compound 4, chrysobenzothiazole B] gave an IC50 of over 30 µM.

Same assay, conditions: Table S11, preliminary screening, c 30 μM
For `Cc1cc(O)c(CC[C@H](C)C(=O)O)c2scnc12` [Compound 3b, Chrysobenzothiazole A], the “Inhibition rate (%) NCI-H446/EP” value was 14.64%. With `Cc1c(O)cc(CCC(C)C(=O)O)c2ncsc12` (stereo not drawn) [Compound 4, chrysobenzothiazole B] the “Inhibition rate (%) NCI-H446/EP” value was 7.13%.
